Source: patent publication US5554631A, “5-pyrrolyl-6-halogeno-2-pyridylmethylsulfinyl benzimidazole derivatives” (Il-Yang Pharm. Co., Ltd., priority 1994, dated 1996)
Counter-ions that a name gives are not always drawn.

The compounds below were run against T1, H^+ /K^+ -ATPase (Oryctolagus cuniculus, UniProt P27112) (assay: Inhibition of H+/K+-ATPase enzyme activity in vitro). Settings: IC50, rabbit gastric microsomal H+/K+-ATPase, 5 min pre-incubation at 37° C., 4 mM ATP.
T1 construct: The gastric mucous membrane was removed from rabbit; from tissue; host or cells: rabbit gastric mucosa, microsomal fraction (77,000 xg)
T1 sequence (P27112 2-1035 limits assumed): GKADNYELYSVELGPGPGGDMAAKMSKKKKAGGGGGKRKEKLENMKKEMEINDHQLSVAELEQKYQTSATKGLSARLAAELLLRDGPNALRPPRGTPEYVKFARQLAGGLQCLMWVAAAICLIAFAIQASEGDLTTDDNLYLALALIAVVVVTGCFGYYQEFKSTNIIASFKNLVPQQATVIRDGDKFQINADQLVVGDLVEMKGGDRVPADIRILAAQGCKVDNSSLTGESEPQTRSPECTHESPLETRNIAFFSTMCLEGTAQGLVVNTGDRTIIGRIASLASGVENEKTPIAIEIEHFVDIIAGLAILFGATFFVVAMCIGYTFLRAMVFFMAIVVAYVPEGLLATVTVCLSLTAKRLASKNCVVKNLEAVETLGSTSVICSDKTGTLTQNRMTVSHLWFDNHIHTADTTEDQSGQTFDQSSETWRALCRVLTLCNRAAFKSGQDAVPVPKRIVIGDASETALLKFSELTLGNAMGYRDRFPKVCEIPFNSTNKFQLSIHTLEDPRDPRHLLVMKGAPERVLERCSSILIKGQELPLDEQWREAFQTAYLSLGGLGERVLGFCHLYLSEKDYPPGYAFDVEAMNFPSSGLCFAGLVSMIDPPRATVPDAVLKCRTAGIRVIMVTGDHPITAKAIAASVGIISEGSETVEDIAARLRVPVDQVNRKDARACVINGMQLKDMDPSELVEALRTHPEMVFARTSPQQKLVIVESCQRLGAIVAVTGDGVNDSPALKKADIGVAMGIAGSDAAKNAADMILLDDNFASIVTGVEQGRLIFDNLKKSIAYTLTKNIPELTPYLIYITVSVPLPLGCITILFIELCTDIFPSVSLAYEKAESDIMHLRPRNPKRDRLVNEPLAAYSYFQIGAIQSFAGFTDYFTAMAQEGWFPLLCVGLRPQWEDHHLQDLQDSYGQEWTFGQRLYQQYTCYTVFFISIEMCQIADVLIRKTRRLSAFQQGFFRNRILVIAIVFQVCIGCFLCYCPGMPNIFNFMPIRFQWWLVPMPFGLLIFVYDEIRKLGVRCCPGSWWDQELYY
T1 sequence (P18597 whole entry partner): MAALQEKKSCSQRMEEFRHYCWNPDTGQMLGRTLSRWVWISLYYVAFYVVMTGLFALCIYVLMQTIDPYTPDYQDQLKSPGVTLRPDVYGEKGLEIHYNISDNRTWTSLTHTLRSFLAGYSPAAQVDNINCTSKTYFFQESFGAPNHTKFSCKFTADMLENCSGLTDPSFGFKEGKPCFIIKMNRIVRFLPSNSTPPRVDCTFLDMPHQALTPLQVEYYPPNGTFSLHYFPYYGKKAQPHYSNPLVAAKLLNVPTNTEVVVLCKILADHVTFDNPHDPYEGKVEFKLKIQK
Format: biochemical, rabbit
Method: The gastric mucous membrane was removed from rabbit and then centrifuged with 77,000 xg using a ultracentrifuge to separate the microsomal fraction which was used as the source of H^+ /K^+ -ATPase enzyme for this test. 60 μg of H^+ /K^+ -ATPase was pre-incubated with the sample (the compound according to the present invention) for 5 minutes at 37° C. and then 4 mM ATP as the substrate and 4 mM Mg^++, 20 mM K^+ as the cofactor were added thereto. Then, the amount of inorganic phosphorus thus produced was determined using a spectrophotometer at 660 nm and converted into the amount of protein according to Lowry method. […]

Structure (SMILES)	IC50 [µM]
Cc1c(OCC(F)(F)C(F)(F)C(F)(F)F)ccnc1C[S+]([O-])c1nc2cc(-n3cccc3)c(F)cc2[nH]1 (stereo not shown) [Compound 13]	470

Same assay, conditions: rabbit gastric microsomal H+/K+-ATPase, 5 min pre-incubation at 37° C., 4 mM ATP; read-out: IC50

Structure (SMILES)	IC50 [µM]
COc1ccnc(CSc2nc3cc(-n4cccc4)c(F)cc3[nH]2)c1C [Compound 1, 2-[[(4-methoxy-3-methyl)-2-pyridinyl]methylthio]-5-(1H-pyrrol-1-yl)-6-fluoro-1H-benzimidazole]	420
COc1cc(C[S+]([O-])c2nc3cc(-n4cccc4)c(F)cc3[nH]2)ncc1C (stereo not shown) [Compound 3]	2000
COc1c(C)cnc(C[S+]([O-])c2nc3cc(-n4cccc4)c(F)cc3[nH]2)c1C (stereo not shown) [Compound 4]	430
CCOCCOc1ccnc(C[S+]([O-])c2nc3cc(-n4cccc4)c(F)cc3[nH]2)c1C (stereo not shown) [Compound 6, 2-[[(4-(2-ethoxyethoxy)-3-methyl)-2-pyridinyl]methylsulfinyl]-5-(1H-pyrrol-1-yl)-6-fluoro-1H-benzimidazole]	28
COc1ccnc(C[S+]([O-])c2nc3cc(-n4cccc4)c(F)cc3[nH]2)c1OC (stereo not shown) [Compound 7]	290
COc1ccnc(C[S+]([O-])c2nc3cc(-n4cccc4)c(F)cc3[nH]2)c1 (stereo not shown) [Compound 8]	1900
[O-][S+](Cc1ccccn1)c1nc2cc(-n3cccc3)c(F)cc2[nH]1 (stereo not shown) [Compound 9]	4700
COc1ccnc(C[S+]([O-])c2nc3cc(-n4cccc4)c(F)cc3[nH]2)c1C (stereo not shown) [Compound 24, 2-[[(4-methoxy-3-methyl)-2-pyridinyl]methylsulfinyl]-5-(1H-pyrrol-1-yl)-6-fluoro-1H-benzimidazole sodium salt]	5.6

Further lines, results first:

IC50 [µM]	Structure (SMILES)
9300	Cc1cnc(C[S+]([O-])c2nc3cc(-n4cccc4)c(F)cc3[nH]2)c(C)c1OCC(F)(F)C(F)(F)F (stereo not shown) [Compound 11]
150	Cc1c(OCC(F)(F)C(F)(F)F)ccnc1C[S+]([O-])c1nc2cc(-n3cccc3)c(F)cc2[nH]1 (stereo not shown) [Compound 12]
5300	Cc1c(OCC(F)(F)C(F)(F)F)ccnc1CS(=O)(=O)c1nc2cc(-n3cccc3)c(F)cc2[nH]1 [Compound 14]
22	COc1cc(C[S+]([O-])c2nc3cc(-n4c(C)ccc4C)c(F)cc3[nH]2)ncc1C (stereo not shown) [Compound 17]
400	Cc1cnc(C[S+]([O-])c2nc3cc(-n4c(C)ccc4C)c(F)cc3[nH]2)cc1C (stereo not shown) [Compound 18]
8100	COc1ccnc(C[S+]([O-])c2nc3cc(-n4c(C)ccc4C)c(F)cc3[nH]2)c1OC (stereo not shown) [Compound 19]
7600	Cc1ccc(C)n1-c1cc2nc([S+]([O-])Cc3ccccn3)[nH]c2cc1F (stereo not shown) [Compound 21]
390	Cc1cnc(C[S+]([O-])c2nc3cc(-n4c(C)ccc4C)c(F)cc3[nH]2)c(C)c1OCC(F)(F)F (stereo not shown) [Compound 22]
320	Cc1c(OCC(F)(F)F)ccnc1C[S+]([O-])c1nc2cc(-n3c(C)ccc3C)c(F)cc2[nH]1 (stereo not shown) [Compound 23]
5.9	COc1ccnc(C[S+]([O-])c2nc3cc(-n4c(C)ccc4C)c(F)cc3[nH]2)c1C (stereo not shown) [Compound 25]
